Results on 21 compounds are retold here after patent US20150080438A1, “6,7-Dihydro-5H-benzo[7]annulene derivatives, processes for their preparation, pharmaceutical products comprising them and their use for preparing medicaments” (Bayer Intellectual Property GmbH, priority 2011, published 2015).

Structures are written as SMILES.

In this test the target is T1, oestrogen receptor (ER) (Homo sapiens, UniProt P03372).
T1 construct: These MVLN cells express, along with the functional oestrogen receptor (ER), a reporter construct; endogenous in cells; host or cells: MVLN cells (MCF7 derivative with ER-responsive luciferase reporter)
T1 sequence (P03372 1-595): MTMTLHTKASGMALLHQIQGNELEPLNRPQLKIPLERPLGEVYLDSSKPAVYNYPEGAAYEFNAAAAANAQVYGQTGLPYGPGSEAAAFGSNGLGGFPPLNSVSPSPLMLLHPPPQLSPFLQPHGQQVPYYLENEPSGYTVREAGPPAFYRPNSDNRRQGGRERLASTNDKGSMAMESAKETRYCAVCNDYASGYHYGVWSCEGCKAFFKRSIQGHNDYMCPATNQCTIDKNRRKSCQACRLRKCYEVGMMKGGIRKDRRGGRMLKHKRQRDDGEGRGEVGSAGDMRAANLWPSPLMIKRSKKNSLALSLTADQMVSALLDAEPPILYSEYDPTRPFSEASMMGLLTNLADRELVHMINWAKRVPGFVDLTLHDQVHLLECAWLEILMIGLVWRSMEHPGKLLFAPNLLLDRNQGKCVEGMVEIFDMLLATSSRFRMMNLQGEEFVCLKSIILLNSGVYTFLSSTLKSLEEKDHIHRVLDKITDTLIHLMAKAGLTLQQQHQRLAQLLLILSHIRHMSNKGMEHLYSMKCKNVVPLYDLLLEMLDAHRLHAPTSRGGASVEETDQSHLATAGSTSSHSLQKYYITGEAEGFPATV
As to the kind of experiment: Anti-oestrogenic action in MVLN cells (inhibition of estradiol-induced luciferase, transactivation antagonism). Type of test: cell-based. The settings on record: inhibition of estradiol-induced luciferase activity, read-out: Anti-oestrogenic action in vitro: MVLN transactivation antagonism IC50. An excerpt:
The anti-oestrogenic action of the claimed pharmacological compounds was investigated in so-called MVLN cells in vitro. MVLN cells are derivatives of the hormone-responsive MCF7 breast cancer cells known by a person skilled in the art. These MVLN cells express, along with the functional oestrogen receptor (ER), a reporter construct, which under ER-activation expresses luciferase. Determination of the activity of the induced luciferase permits a direct conclusion on the oestrogen properties of substances. To investigate the anti-oestrogenic properties of the pharmacological compounds, they were investigated in the presence of oestrogen for their potential for inhibiting the luciferase signal induced by estradiol.
The claimed pharmacological test substances were investigated in MVLN cells for their anti-oestrogenic potential, as described (see Table 2).

As for `CCN(CCCCCCC1=C(c2ccccc2)CCCc2cc(O)ccc21)CCC[S+]([O-])CCC(F)(F)F` (racemic) [Example 76, 9-[6-(Ethyl{3-[(RS)-(3,3,3-trifluoropropyl)sulphinyl]propyl}amino)hexyl]-8-phenyl-6,7-dihydro-5H-benzo[7]annulen-3-ol], the 50% inhibitory concentration (IC50) came to 23 nM.

With `[O-][S+](CCCN(CCO)CCCCCCC1=C(c2ccccc2)CCCc2cc(O)ccc21)CCC(F)(F)F` (racemic) [Example 78, 9-{6-[(2-Hydroxyethyl){3-[(RS)-(3,3,3-trifluoropropyl)sulphinyl]propyl}amino]hexyl}-8-phenyl-6,7-dihydro-5H-benzo[7]annulen-3-ol], the IC50 came out at 11 nM.

`[O-][S+](CCCN(CCCO)CCCCCCC1=C(c2ccccc2)CCCc2cc(O)ccc21)CCC(F)(F)F` (racemic) [Example 80, 9-{6-[(3-Hydroxypropyl){3-[(RS)-(3,3,3-trifluoropropyl)sulphinyl]propyl}amino]hexyl}-8-phenyl-6,7-dihydro-5H-benzo[7]annulen-3-ol]: the IC50 is 9 nM.

Consider `CC(C)(O)CN(CCCCCCC1=C(c2ccccc2)CCCc2cc(O)ccc21)CCC[S+]([O-])CCC(F)(F)F` (racemic) [Example 82, 9-{6-[(2-Hydroxy-2-methylpropyl){3-[(RS)-(3,3,3-trifluoropropyl)sulphinyl]propyl}amino]hexyl}-8-phenyl-6,7-dihydro-5H-benzo[7]annulen-3-ol], for which the IC50 was determined as 9 nM.

On to `CN(CCCCCC1=C(c2ccccc2)CCCc2cc(O)ccc21)CCCC[S+]([O-])CCCC(F)(F)C(F)(F)F` (racemic) [Example 84, 9-[5-(Methyl{4-[(RS)-(4,4,5,5,5-pentafluoropentyl)sulphinyl]butyl}amino)pentyl]-8-phenyl-6,7-dihydro-5H-benzo[7]annulen-3-ol], for which the IC50 was 31 nM.

`CCN(CCCCCCC1=C(c2cccc(O)c2)CCCc2cc(O)ccc21)CCC[S+]([O-])CCCC(F)(F)C(F)(F)F` (racemic) [Example 86, 9-[6-(Ethyl{3-[(RS)-(4,4,5,5,5-pentafluoropentyl)sulphinyl]propyl}amino)hexyl]-8-(3-hydroxyphenyl)-6,7-dihydro-5H-benzo[7]annulen-3-ol]: the concentration for half-maximal inhibition (IC50) turned out to be 1 nM.

Take `[O-][S+](CCCN(CCO)CCCCCCC1=C(c2cccc(O)c2)CCCc2cc(O)ccc21)CCCC(F)(F)C(F)(F)F` (racemic) [Example 87, 9-{6-[(2-Hydroxyethyl){3-[(RS)-(4,4,5,5,5-pentafluoropentyl)sulphinyl]propyl}amino]hexyl}-8-(3-hydroxyphenyl)-6,7-dihydro-5H-benzo[7]annulen-3-ol]: the 50% inhibitory concentration (IC50) is 1 nM.

Regarding `[O-][S+](CCCN(CCCO)CCCCCCC1=C(c2cccc(O)c2)CCCc2cc(O)ccc21)CCCC(F)(F)C(F)(F)F` (racemic) [Example 88, 8-(3-Hydroxyphenyl)-9-{6-[(3-hydroxypropyl){3-[(RS)-(4,4,5,5,5-pentafluoropentyl)sulphinyl]propyl}amino]hexyl}-6,7-dihydro-5H-benzo[7]annulen-3-ol], the IC50 came out at 1 nM.

As to `CC(C)(O)CN(CCCCCCC1=C(c2cccc(O)c2)CCCc2cc(O)ccc21)CCC[S+]([O-])CCCC(F)(F)C(F)(F)F` (racemic) [Example 89, 9-{6-[(2-Hydroxy-2-methylpropyl){3-[(RS)-(4,4,5,5,5-pentafluoropentyl)sulphinyl]propyl}amino]hexyl}-8-(3-hydroxyphenyl)-6,7-dihydro-5H-benzo[7]annulen-3-ol], the IC50 stood at 2 nM.

For the compound `CCN(CCCCCCC1=C(c2cccc(O)c2)CCCc2cc(O)ccc21)CCC[S+]([O-])CCC(F)(F)F` (racemic) [Example 94, 9-[6-(Ethyl{3-[(RS)-(3,3,3-trifluoropropyl)sulphinyl]propyl}amino)hexyl]-8-(3-hydroxyphenyl)-6,7-dihydro-5H-benzo[7]annulen-3-ol], the IC50 turned out to be 9 nM.

Regarding `[O-][S+](CCCN(CCO)CCCCCCC1=C(c2cccc(O)c2)CCCc2cc(O)ccc21)CCC(F)(F)F` (racemic) [Example 95, 9-{6-[(2-Hydroxyethyl){3-[(RS)-(3,3,3-trifluoropropyl)sulphinyl]propyl}amino]hexyl}-8-(3-hydroxyphenyl)-6,7-dihydro-5H-benzo[7]annulen-3-ol], the IC50 is 7 nM.

As to `[O-][S+](CCCN(CCCO)CCCCCCC1=C(c2cccc(O)c2)CCCc2cc(O)ccc21)CCC(F)(F)F` (racemic) [Example 96, 8-(3-Hydroxyphenyl)-9-{6-[(3-hydroxypropyl){3-[(RS)-(3,3,3-trifluoropropyl)sulphinyl]propyl}amino]hexyl}-6,7-dihydro-5H-benzo[7]annulen-3-ol], the IC50 is 5 nM.

As for `CC(C)(O)CN(CCCCCCC1=C(c2cccc(O)c2)CCCc2cc(O)ccc21)CCC[S+]([O-])CCC(F)(F)F` (racemic) [Example 97, 9-{6-[(2-Hydroxy-2-methylpropyl){3-[(RS)-(3,3,3-trifluoropropyl)sulphinyl]propyl}amino]hexyl}-8-(3-hydroxyphenyl)-6,7-dihydro-5H-benzo[7]annulen-3-ol], the IC50 was found to be 2 nM.

With `CN(CCCCCCC1=C(c2ccccc2)CCCc2c1ccc(O)c2Cl)CCC[S+]([O-])CCCC(F)(F)C(F)(F)F` (racemic) [Example 104, 4-Chloro-9-[6-(methyl{3-[(RS)-(4,4,5,5,5-pentafluoropentyl)sulphinyl]propyl}amino)hexyl]-8-phenyl-6,7-dihydro-5H-benzo[7]annulen-3-ol], the IC50 came out at 25 nM.

For the compound `COCCCN(CCCCCCC1=C(c2cccc(O)c2)CCCc2cc(O)ccc21)CCC[S+]([O-])CCCC(F)(F)C(F)(F)F` (racemic) [Example 108, 8-(3-Hydroxyphenyl)-9-{6-[(3-methoxypropyl){3-[(RS)-(4,4,5,5,5-pentafluoropentyl)sulphinyl]propyl}amino]hexyl}-6,7-dihydro-5H-benzo[7]annulen-3-ol], the IC50 is 2 nM.

With `CN(CCCCCCC1=C(c2ccc(F)c(O)c2)CCCc2c1ccc(O)c2F)CCCC[S+]([O-])CCC(F)(F)F` (racemic) [Example 120, 4-Fluoro-8-(4-fluoro-3-hydroxyphenyl)-9-[6-(methyl{4-[(RS)-(3,3,3-trifluoropropyl)sulphinyl]butyl}amino)hexyl]-6,7-dihydro-5H-benzo[7]annulen-3-ol], the concentration for half-maximal inhibition (IC50) was 5 nM.

In the case of `CN(CCCCCCC1=C(c2ccc(F)c(O)c2)CCCc2cc(O)c(F)cc21)CCC[S+]([O-])CCC(F)(F)C(F)(F)F` (racemic) [Example 122, 2-Fluoro-8-(4-fluoro-3-hydroxyphenyl)-9-[6-(methyl{3-[(RS)-(3,3,4,4,4-pentafluorobutyl)sulphinyl]propyl}amino)hexyl]-6,7-dihydro-5H-benzo[7]annulen-3-ol], the 50% inhibitory concentration (IC50) came out at 6 nM.

`CN(CCCCCCC1=C(c2ccc(F)c(O)c2)CCCc2cc(O)c(F)cc21)CCCC[S+]([O-])CCCC(F)(F)C(F)(F)F` (racemic) [Example 124, 2-Fluoro-8-(4-fluoro-3-hydroxyphenyl)-9-[6-(methyl{4-[(RS)-(4,4,5,5,5-pentafluoropentyl)sulphinyl]butyl}amino)hexyl]-6,7-dihydro-5H-benzo[7]annulen-3-ol]: the IC50 was 6 nM.

Turning to `CN(CCCCCCC1=C(c2ccc(F)c(O)c2)CCCc2cc(O)c(F)cc21)CCC[S+]([O-])CCC(F)(F)F` (racemic) [Example 125, 2-Fluoro-8-(4-fluoro-3-hydroxyphenyl)-9-[6-(methyl{3-[(RS)-(3,3,3-trifluoropropyl)sulphinyl]propyl}amino)hexyl]-6,7-dihydro-5H-benzo[7]annulen-3-ol], the half-inhibitory concentration (IC50) amounted to 16 nM.

As for `CC(C)(O)CN(CCCCCCC1=C(c2ccc(F)c(O)c2)CCCc2cc(O)c(F)cc21)CCC[S+]([O-])CCC(F)(F)F` (racemic) [Example 129, 2-Fluoro-8-(4-fluoro-3-hydroxyphenyl)-9-{6-[(2-hydroxy-2-methylpropyl){3-[(RS)-(3,3,3-trifluoropropyl)sulphinyl]propyl}amino]hexyl}-6,7-dihydro-5H-benzo[7]annulen-3-ol], the IC50 was determined as 4 nM.

Take `CN(CCCCCCC1=C(c2ccc(F)c(O)c2)CCCc2cc(O)c(F)cc21)CCC[S+]([O-])CCCC(F)(F)C(F)(F)F` (racemic) [Example 130, 2-Fluoro-8-(4-fluoro-3-hydroxyphenyl)-9-[6-(methyl{3-[(RS)-(4,4,5,5,5-pentafluoropentyl)sulphinyl]propyl}amino)hexyl]-6,7-dihydro-5H-benzo[7]annulen-3-ol]: the IC50 worked out at 5 nM.
